# Laboratory results from US20030215462A1, “Use of UGT inhibitors to increase bioavailability” (priority 2001, published 2003).
# “And” between values parts separate entries of the source, which are not always exact repeats. Identical values can stand only once. Like-named read-outs stand apart in the source and are kept apart here.
# Tests used:
# Assay type in all cases: biochemical
# [1] = test system: T1, UGT enzymes of human liver microsomes; assay: Inhibition of 7-HFC glucuronidation in human liver microsomes; conditions: 7-HFC 50 μM, human liver microsomes 100 μg/ml, 15 min
# T1 construct: percentage of control metabolism, 7-HFC glucuronidation; percentage of control metabolism, 7-HFC glucuronidation
# [2] = test system: UGT enzymes of human liver microsomes; assay: Inhibition of raloxifene glucuronidation (G1, G2) in human liver microsomes
# Source text: Compounds were eluted using a binary solvent gradient system. […] Solvent B was methanol. […] Detection was at 280 nm.
# [3] = biological target: T2, UGT enzymes of human liver microsomes (Homo sapiens, UniProt P16662); assay: Inhibition of zidovudine glucuronidation in human liver microsomes; conditions: liver lot 062101
# T2 construct: residual metabolism (percentage of control), zidovudine glucuronidation; other: liver lot 062101; residual metabolism (percentage of control), zidovudine glucuronidation; residual metabolism (percentage of control)
# T2 sequence (P16662 1-529): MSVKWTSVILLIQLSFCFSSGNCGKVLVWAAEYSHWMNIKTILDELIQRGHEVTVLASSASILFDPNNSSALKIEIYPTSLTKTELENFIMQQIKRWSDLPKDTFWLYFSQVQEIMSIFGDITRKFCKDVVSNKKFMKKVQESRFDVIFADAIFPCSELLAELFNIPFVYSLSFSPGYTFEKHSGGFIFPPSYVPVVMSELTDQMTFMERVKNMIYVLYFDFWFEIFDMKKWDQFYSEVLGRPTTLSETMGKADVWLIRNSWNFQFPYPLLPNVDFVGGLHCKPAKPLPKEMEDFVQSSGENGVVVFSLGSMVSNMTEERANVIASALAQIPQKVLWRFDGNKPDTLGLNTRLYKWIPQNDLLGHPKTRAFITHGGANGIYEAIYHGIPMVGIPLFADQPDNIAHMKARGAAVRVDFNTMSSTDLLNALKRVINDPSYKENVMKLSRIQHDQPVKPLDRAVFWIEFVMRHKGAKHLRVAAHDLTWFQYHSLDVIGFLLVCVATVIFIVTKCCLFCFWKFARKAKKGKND
# Experimental: Compounds were eluted using a binary solvent gradient system where solvent A was dilute phosphoric acid (pH 3) and solvent B was acetonitrile.
# Standardized incubations utilized 500 μM zidovudine substrate, 1 mg/ml microsomal protein, 5 mM UDPGA and a 30 min incubation time. […] Int.
# [4] = G1, inhibitor 500 μM, raloxifene 50 μM, human liver microsomes 250 μg/ml, 15 min
# [5] = G2, inhibitor 500 μM, raloxifene 50 μM, human liver microsomes 250 μg/ml, 15 min
smiles,measurement,setting,value
CC(C)[C@@H]1CC[C@@H](C)C[C@H]1O[C@@H]1O[C@H](C(=O)O)[C@@H](O)[C@H](O)[C@H]1O [Menthol glucuronide],"% of control metabolism (SD, n = 3), 7-HFC glucuronidation",[1]; inhibitor 500 μM,94 (4) %
same,"% of control metabolism (SD, n = 3), raloxifene glucuronide G1",[2],91 (2) %
same,"% of control metabolism (SD, n = 3), raloxifene glucuronide G2",[2],84 (1) %
CC(=O)OC1CC(C)CCC1C(C)C (stereo not shown) [Menthyl acetate],"residual metabolism (percentage of control), zidovudine glucuronidation",[3]; inhibitor 200 μM,64 (2) %
same,"residual metabolism (percentage of control), zidovudine glucuronidation",[3]; inhibitor 500 μM,35 (1) %
same,"residual metabolism (percentage of control), zidovudine glucuronidation",[3]; inhibitor 1000 μM,20 (1) %
COc1ccc2cc(CCC(C)=O)ccc2c1 [Nabumetone],"% of control metabolism (SD, n = 3), 7-HFC glucuronidation",[1]; inhibitor 500 μM,81 (3) %
same,"% of control metabolism (SD, n = 3), raloxifene glucuronide G1",[2]; [4],75 (2) %
same,"% of control metabolism (SD, n = 3), raloxifene glucuronide G2",[2]; [5],80 (2) %
COc1ccc2cc([C@H](C)C(=O)O)ccc2c1 [Naproxen Free Acid],"% of control metabolism (SD, n = 3), 7-HFC glucuronidation",[1]; inhibitor 500 μM,83 (1) %
same,"% of control metabolism (SD, n = 3), raloxifene glucuronide G1",[2],81 (3) %
same,"% of control metabolism (SD, n = 3), raloxifene glucuronide G2",[2],78 (2) %
COc1ccc2cc([C@H](C)C(=O)[O-])ccc2c1.[Na+] [Naproxen Na salt],"% of control metabolism (SD, n = 3), 7-HFC glucuronidation",[1]; inhibitor 500 μM,82 (1) %
CC(C)=CCC/C(C)=C\CO [Nerol],"% of control metabolism (SD, n = 3), 7-HFC glucuronidation",[1]; inhibitor 500 μM,71 (2) %
CCCCCCCCCCCCCCCC(=O)O [Palmitic acid],"% of control metabolism (SD, n = 3), 7-HFC glucuronidation",[1]; inhibitor 500 μM,104 (2) %
CCCCCCCCCCCCCCCC(=O)OC/C=C(C)/C=C/C=C(C)/C=C/C1=C(C)CCCC1(C)C [Retinol palmitate],"% of control metabolism (SD, n = 3), 7-HFC glucuronidation",[1]; inhibitor 100 μM,90 (3) %
same,"% of control metabolism (SD, n = 3), 7-HFC glucuronidation",[1]; inhibitor 200 μM,82 (1) %
same,"% of control metabolism (SD, n = 3), 7-HFC glucuronidation",[1]; inhibitor 500 μM,81 (4) %
CC(=O)OC/C=C(C)/C=C/C=C(C)/C=C/C1=C(C)CCCC1(C)C [Retinyl acetate],"% of control metabolism (SD, n = 3), 7-HFC glucuronidation",[1]; inhibitor 100 μM,72 (1) %
same,"% of control metabolism (SD, n = 3), 7-HFC glucuronidation",[1]; inhibitor 200 μM,60 (3) %
same,"% of control metabolism (SD, n = 3), 7-HFC glucuronidation",[1]; inhibitor 500 μM,48 (1) %
CC1=C(CC(=O)O)c2cc(F)ccc2/C1=C\c1ccc([S+](C)[O-])cc1 (stereo not shown) [Sulindac],"% of control metabolism (SD, n = 3), 7-HFC glucuronidation",[1]; inhibitor 500 μM,85 (0) %
same,"% of control metabolism (SD, n = 3), raloxifene glucuronide G1","[2]; G1, inhibitor 100 μM, raloxifene 50 μM, human liver microsomes 250 μg/ml, 15 min",76 (6) %
same,"% of control metabolism (SD, n = 3), raloxifene glucuronide G1",[2]; [4],25 (3) %
same,"% of control metabolism (SD, n = 3), raloxifene glucuronide G2","[2]; G2, inhibitor 100 μM, raloxifene 50 μM, human liver microsomes 250 μg/ml, 15 min",79 (4) %
same,"% of control metabolism (SD, n = 3), raloxifene glucuronide G2",[2]; [5],44 (2) %
C=CC[C@@H]1/C=C(\C)C[C@H](C)C[C@H](OC)[C@H]2O[C@@](O)(C(=O)C(=O)N3CCCC[C@H]3C(=O)O[C@H](/C(C)=C/[C@@H]3CC[C@@H](O)[C@H](OC)C3)[C@H](C)[C@@H](O)CC1=O)[C@H](C)C[C@@H]2OC [Tacrolimus],"% of control metabolism (SD, n = 3), 7-HFC glucuronidation",[1]; inhibitor 500 μM,126 (4) %
CCCCNC(=O)NS(=O)(=O)c1ccc(C)cc1 [Tolbutamide],"% of control metabolism (SD, n = 3), 7-HFC glucuronidation",[1]; inhibitor 500 μM,100 (0) %
same,"% of control metabolism (SD, n = 3), raloxifene glucuronide G1",[2],98 (7) %
same,"% of control metabolism (SD, n = 3), raloxifene glucuronide G2",[2],91 (2) %
COc1cc(C=O)ccc1O [Vanillin],"residual metabolism (percentage of control), zidovudine glucuronidation",[3]; inhibitor 500 μM,81 (4) %
CC1=CC(=O)c2ccccc2C1=O [Vitamin K3],"% of control metabolism (SD, n = 3), 7-HFC glucuronidation",[1]; inhibitor 500 μM,78 (2) %
"O=[N+]([O-])c1ccc(O)cc1 [p-Nitrophenol, reference compound]","% of control metabolism (SD, n = 3), 7-HFC glucuronidation",[1]; inhibitor 500 μM,62 (1) %
same,"% of control metabolism, raloxifene G1",[2],"37 (0), 42 (2) % and 49 (2), 51 (2) % and 63 (4), 66 (1) %"
same,"% of control metabolism, raloxifene G2",[2],"37 (0), 42 (2) % and 49 (2), 51 (2) % and 63 (4), 66 (1) %"
CCCCCCCCCCCCCCCC(=O)Oc1ccc([N+](=O)[O-])cc1 [p-Nitrophenyl palmitate],"% of control metabolism (SD, n = 3), 7-HFC glucuronidation",[1]; inhibitor 500 μM,96 (1) %
CCCCCCCCCCCCCCCC(=O)Oc1cccc2ccccc12 [α-Naphthyl palmitate],"% of control metabolism (SD, n = 3), 7-HFC glucuronidation",[1]; inhibitor 500 μM,70 (3) %
